Measurements reported in US8952024B2, “Herbicidal pyrimidone derivatives” (E I du Pont de Nemours and Company, priority 2009, dated 2015).

Columns and labels:
Type in all cases: in vivo
[1] = system: ducksalad (Heteranthera limosa); assay: Test B flooded paddy test; conditions: for Plant response rating, Flood, Ducksalad: 250 g ai/ha, flooded paddy test, visual rating on 0 to 100 scale (0 no effect, 100 complete control) after 13 to 15 days; for Plant response rating, Ducksalad: Flood (flooded paddy test), 13 to 15 days; for Ducksalad plant response rating: Flood, 31 g ai/ha, scale 0 to 100 (0 no effect, 100 complete control)
Method in brief: (§1)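 Plants were grown to the 2-leaf stage, then pots were flooded to 3 cm above the soil and compounds were applied directly into the paddy water. That depth was held throughout. After 13 to 15 days in a greenhouse, injury was visually rated against controls on a 0–100 scale.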

[2] = system: umbrella sedge (Cyperus difformis); assay: Test B flooded paddy test; conditions: for Plant response rating, Flood, Sedge, Umbrella: 250 g ai/ha, flooded paddy test, visual rating on 0 to 100 scale (0 no effect, 100 complete control) after 13 to 15 days; for Plant response rating, Sedge, Umbrella: Flood (flooded paddy test), 13 to 15 days; for Sedge, Umbrella plant response rating: Flood, 31 g ai/ha, scale 0 to 100 (0 no effect, 100 complete control)
Method in brief: as §1

[3] = system: rice (Oryza sativa); assay: Test B flooded paddy test; conditions: for Plant response rating, Flood, Rice: 250 g ai/ha, flooded paddy test, visual rating on 0 to 100 scale (0 no effect, 100 complete control) after 13 to 15 days; for Plant response rating, Rice: Flood (flooded paddy test), 13 to 15 days; for Rice plant response rating: Flood, 31 g ai/ha, scale 0 to 100 (0 no effect, 100 complete control)
Method in brief: as §1

[4] = system: barnyardgrass (Echinochloa crus-galli); assay: Test B flooded paddy test; conditions: for Plant response rating, Flood, Barnyardgrass: 250 g ai/ha, flooded paddy test, visual rating on 0 to 100 scale (0 no effect, 100 complete control) after 13 to 15 days; for Plant response rating, Barnyardgrass: Flood (flooded paddy test), 13 to 15 days; for Barnyardgrass plant response rating: Flood, 31 g ai/ha, scale 0 to 100 (0 no effect, 100 complete control)
Method in brief: as §1

[5] = system: wheat (Triticum aestivum); assay: Test A pre-/postemergence plant response; conditions: for Wheat plant response rating: visual injury, 0 to 100 scale (0 no effect, 100 complete control), approx. ten days
Method in brief: (§2)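 Both pre- and postemergence treatments are applied simultaneously, using chemicals formulated in a non-phytotoxic solvent mixture with surfactant. Postemergence plants are 2–10 cm high with one to two leaves. After approximately ten days in a greenhouse, injury is scored visually from 0 (none) to 100 (complete control) relative to untreated plants.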

[6] = system: pigweed (Amaranthus retroflexus); assay: Test A pre-/postemergence plant response; conditions: for Pigweed plant response rating: visual injury, 0 to 100 scale (0 no effect, 100 complete control), approx. ten days
Method in brief: as §2

[7] = system: velvetleaf (Abutilon theophrasti); assay: Test A pre-/postemergence plant response; conditions: for Velvetleaf plant response rating: visual injury, 0 to 100 scale (0 no effect, 100 complete control), approx. ten days
Method in brief: as §2

[8] = system: giant foxtail (Setaria faberii); assay: Test A pre-/postemergence plant response; conditions: for Foxtail, Giant plant response rating: visual injury, 0 to 100 scale (0 no effect, 100 complete control), approx. ten days
Method in brief: as §2

[9] = system: morningglory (Ipomoea spp.); assay: Test A pre-/postemergence plant response; conditions: for Morningglory plant response rating: visual injury, 0 to 100 scale (0 no effect, 100 complete control), approx. ten days
Method in brief: as §2

[10] = system: barnyardgrass (Echinochloa crus-galli); assay: Test A pre-/postemergence plant response; conditions: for Barnyardgrass plant response rating: visual injury, 0 to 100 scale (0 no effect, 100 complete control), approx. ten days
Method in brief: as §2

[11] = system: corn (Zea mays); assay: Test A pre-/postemergence plant response; conditions: for Corn plant response rating: visual injury, 0 to 100 scale (0 no effect, 100 complete control), approx. ten days
Method in brief: as §2

[12] = system: large crabgrass (Digitaria sanguinalis); assay: Test A pre-/postemergence plant response; conditions: for Crabgrass, Large plant response rating: visual injury, 0 to 100 scale (0 no effect, 100 complete control), approx. ten days
Method in brief: as §2

[13] = 62 g ai/ha, scale of 0 to 100 where 0 is no effect and 100 is complete control
[14] = 125 g ai/ha, scale 0 to 100, 0 is no effect, 100 is complete control
[15] = Postemergence, 125 g ai/ha, 0 to 100 scale where 0 is no effect and 100 is complete control
[16] = Preemergence, 125 g ai/ha, 0 to 100 scale, 0 = no effect, 100 = complete control
[17] = Preemergence, 500 g ai/ha, 0 to 100 scale, 0 = no effect, 100 = complete control

COc1ccc(-n2c(-c3cccc(F)c3)ncc(C(=O)C3=C(O)CCCC3=O)c2=O)cc1 [Compound 203]
0: Sedge, Umbrella plant response rating [2] | Plant response rating, Flood, Rice [3] | Plant response rating, Rice [3, 13] | Plant response rating, Rice [3, 14] | Rice plant response rating [3] | Plant response rating, Barnyardgrass [4, 13] | Plant response rating, Barnyardgrass [4, 14] | Barnyardgrass plant response rating [4] | Plant response rating, Wheat [5, 15] | Plant response rating, Wheat [5, 16] | Plant response rating, Morningglory [9, 16] | Plant response rating, Corn [11, 15] | Plant response rating, Corn [11, 16]
75: Plant response rating, Ducksalad [1, 13] | Plant response rating, Sedge, Umbrella [2, 14]
50: Plant response rating, Velvetleaf [7, 16]
85: Plant response rating, Flood, Sedge, Umbrella [2]
90: Plant response rating, Velvetleaf [7, 15] | Plant response rating, Foxtail, Giant [8, 17]
65: Plant response rating, Sedge, Umbrella [2, 13]
20: Plant response rating, Flood, Barnyardgrass [4] | Plant response rating, Corn [11, 17] | Plant response rating, Crabgrass, Large [12, 16]
100: Plant response rating, Pigweed [6, 15] | Pigweed plant response rating ([6]; Postemergence, 500 g ai/ha) | Plant response rating, Pigweed [6, 16] | Plant response rating, Pigweed [6, 17] | Velvetleaf plant response rating ([7]; Postemergence, 500 g ai/ha) | Plant response rating, Morningglory [9, 15] | Morningglory plant response rating ([9]; Postemergence, 500 g ai/ha) | Barnyardgrass plant response rating ([10]; Postemergence, 500 g ai/ha)
95: Plant response rating, Flood, Ducksalad [1] | Plant response rating, Ducksalad [1, 14]
40: Ducksalad plant response rating [1]
30: Wheat plant response rating ([5]; Postemergence, 500 g ai/ha) | Plant response rating, Wheat [5, 17] | Plant response rating, Foxtail, Giant [8, 15] | Plant response rating, Foxtail, Giant [8, 16] | Plant response rating, Barnyardgrass [10, 16] | Corn plant response rating ([11]; Postemergence, 500 g ai/ha) | Plant response rating, Crabgrass, Large [12, 15]
70: Plant response rating, Morningglory [9, 17] | Plant response rating, Barnyardgrass [10, 17] | Crabgrass, Large plant response rating ([12]; Postemergence, 500 g ai/ha) | Plant response rating, Crabgrass, Large [12, 17]
80: Plant response rating, Velvetleaf [7, 17] | Foxtail, Giant plant response rating ([8]; Postemergence, 500 g ai/ha) | Plant response rating, Barnyardgrass [10, 15]

O=C1CCCC(O)=C1C(=O)c1cnc(-c2cccc(F)c2)n(CCC(F)(F)F)c1=O [Compound 208]
30: Plant response rating, Ducksalad [1, 13] | Plant response rating, Foxtail, Giant [8, 15] | Plant response rating, Barnyardgrass [10, 15] | Plant response rating, Crabgrass, Large [12, 15]
40: Plant response rating, Ducksalad [1, 14] | Plant response rating, Sedge, Umbrella [2, 13] | Plant response rating, Sedge, Umbrella [2, 14] | Plant response rating, Foxtail, Giant [8, 16]
70: Plant response rating, Flood, Sedge, Umbrella [2] | Plant response rating, Foxtail, Giant [8, 17] | Plant response rating, Morningglory [9, 17]
75: Plant response rating, Flood, Ducksalad [1]
60: Plant response rating, Pigweed [6, 16] | Plant response rating, Velvetleaf [7, 16]
10: Wheat plant response rating ([5]; Postemergence, 500 g ai/ha) | Plant response rating, Barnyardgrass [10, 16]
20: Plant response rating, Wheat [5, 17] | Corn plant response rating ([11]; Postemergence, 500 g ai/ha) | Plant response rating, Corn [11, 17]
100: Plant response rating, Pigweed [6, 17] | Plant response rating, Velvetleaf [7, 15] | Velvetleaf plant response rating ([7]; Postemergence, 500 g ai/ha) | Morningglory plant response rating ([9]; Postemergence, 500 g ai/ha) | Plant response rating, Crabgrass, Large [12, 17]
90: Pigweed plant response rating ([6]; Postemergence, 500 g ai/ha) | Plant response rating, Velvetleaf [7, 17] | Barnyardgrass plant response rating ([10]; Postemergence, 500 g ai/ha)
50: Plant response rating, Morningglory [9, 15]
80: Plant response rating, Pigweed [6, 15] | Foxtail, Giant plant response rating ([8]; Postemergence, 500 g ai/ha) | Plant response rating, Barnyardgrass [10, 17] | Crabgrass, Large plant response rating ([12]; Postemergence, 500 g ai/ha) | Plant response rating, Crabgrass, Large [12, 16]
15: Plant response rating, Barnyardgrass [4, 14]
25: Plant response rating, Flood, Barnyardgrass [4]
0: Ducksalad plant response rating [1] | Sedge, Umbrella plant response rating [2] | Plant response rating, Flood, Rice [3] | Plant response rating, Rice [3, 13] | Plant response rating, Rice [3, 14] | Rice plant response rating [3] | Plant response rating, Barnyardgrass [4, 13] | Barnyardgrass plant response rating [4] | Plant response rating, Wheat [5, 15] | Plant response rating, Wheat [5, 16] | Plant response rating, Morningglory [9, 16] | Plant response rating, Corn [11, 15] | Plant response rating, Corn [11, 16]
